Key:
[1] = In vivo pharmacokinetic study in CD-1 mice; details: male, mouse, single oral gavage dose of 10 mg/kg, plasma
Experimental: In vivo pharmacokinetic study in CD-1 mice
Twenty-four healthy adult male mice from Beijing Vital River Laboratory Animal Technology Co., Ltd. were used in the study.
CD-1 mice were administered with a single oral gavage dose of 10 mg/kg in a volume of 10 mL/kg at a concentration of 1 mg/mL.
The test article in this project is generally suspended in 0.5% hydroxypropylmethyl cellulose, 0.1% Tween 80 (W/V/V) aqueous solution at the concentration of 1 mg/mL.
Animals dosed by gavage were fasted overnight before the experiment from 16 h before dosing to 4 h after dosing. Blood was collected at 0.25, 0.5, 1, 2, 4, 6, 8, and 24 h after administration successively. The animals were lightly anesthetized with isoflurane. About 0.2 mL of whole blood was collected from the orbital venous plexus using a glass blood collection tube and placed in a sodium heparin anticoagulant tube. The sample was centrifuged at 5200 rpm for 5 min at 4° C. The plasma was transferred to a centrifuge tube and stored at −80° C. until analysis.
Analysis of plasma samples Test compounds and internal standards (warfarin or propranolol) were extracted from mouse plasma using an acetonitrile protein precipitation method and the extracts were analyzed by LC/MS/MS. The measured plasma concentration-time data of individual animals were analyzed using the non-compartmental model of WinNonlin (version 5.2.1, Pharsight) software to obtain the corresponding pharmacokinetic parameters: maximum (peak) plasma drug concentration Cmax; Time to peak Tmax; Half-life T1/2 and area under the plasma concentration-time curve extrapolated to infinite time AUC0-inf.

human MAT2A enzyme = human MAT2A enzyme (Homo sapiens (Human), UniProt P31153); test: In vitro enzymatic inhibition activity assay on MAT2A (PiColorLock phosphate detection); assay type: biochemical; details: purified human MAT2A 10 nM, ATP 50 μM, L-methionine 100 μM, 6 h at 23° C.; read-out: MAT2A inhibitory activity IC50
Method in brief: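 IC50 came from an 8-point, 10-fold compound series that reduced phosphate release, measured by absorbance at 630 nm. Reactions ran 6 h at 23 °C with 10 nM human MAT2A, 50 μM ATP and 100 μM L-methionine in pH 7.5 Tris buffer containing Mg2+.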

Sequence of human MAT2A enzyme (P31153 whole entry): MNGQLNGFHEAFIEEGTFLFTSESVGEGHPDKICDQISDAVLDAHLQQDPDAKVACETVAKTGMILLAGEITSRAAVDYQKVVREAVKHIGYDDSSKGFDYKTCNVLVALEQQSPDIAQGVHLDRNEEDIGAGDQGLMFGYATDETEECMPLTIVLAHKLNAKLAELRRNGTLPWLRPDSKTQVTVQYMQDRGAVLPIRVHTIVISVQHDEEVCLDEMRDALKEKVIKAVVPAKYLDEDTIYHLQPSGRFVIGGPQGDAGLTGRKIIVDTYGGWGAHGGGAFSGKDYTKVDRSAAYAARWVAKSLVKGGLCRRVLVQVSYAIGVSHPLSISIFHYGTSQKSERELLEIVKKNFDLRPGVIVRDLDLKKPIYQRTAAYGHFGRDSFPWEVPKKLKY

| Compound | IC50 (human MAT2A enzyme) | other results |
| --- | --- | --- |
| COC(=O)c1c(N)c2ccc(Cl)cc2n(-c2ccccc2)c1=O [Example 15, methyl 4-amino-7-chloro-2-oxo-1-phenyl-1,2-dihydroquinoline-3—carboxylate] | – | AUC [1]: 44.2 µg·h/mL; Cmax [1]: 3.08 µg/mL; Tmax [1]: 6 h; half-life [1]: 8.88 h |
| CCc1ccc(-n2c(=O)c(C(=O)OC)c(N)c3ccc(C(F)(F)F)cc32)cc1 [Example 155, methyl 4-amino-1-(4-ethylphenyl)-2-oxo-7-(trifluoromethyl)-1,2-dihydroquinoline-3-carboxylate] | 1.93 nM | – |
| COC(=O)c1c(N)c2ccc(Br)cc2n(-c2ccc(C(C)O)nc2)c1=O (stereo not drawn) [Example 291, methyl 4-amino-1-(6-(1-hydroxyethyl)pyridin-3-yl)-2-oxo-7-bromo-1,2-dihydroquinoline-3-carboxylate] | 2.18 nM | – |
| COC(=O)c1c(N)c2ccc(I)cc2n(-c2ccccc2Cl)c1=O [Example 20, methyl 4-amino-7-iodo-1-(2-chlorophenyl)-2-oxo-1,2-dihydroquinoline-3-carboxylate] | 5.98 nM | – |
| COC(=O)c1c(N)c2ccc(OC)cc2n(-c2ccc([C@@H](C)O)cc2)c1=O [Example 365, methyl (R)-4-amino-1-(4-(1-hydroxyethyl)phenyl)-7-methoxy-2-oxo-1,2-dihydroquinoline-3-carboxylate] | 2.02 nM | – |
| COC(=O)c1c(N)c2ccc(C(F)(F)F)cc2n(-c2ccc(C(C)O)cc2C)c1=O (stereo not drawn) [Example 269, methyl 4-amino-1-(4-(1-hydroxyethyl)-2-methylphenyl)-2-oxo-7-(trifluoromethyl)-1,2-dihydroquinoline-3-carboxylate] | 5.95 nM | – |
| COC(=O)c1c(N)c2ccc(C(F)(F)F)cc2n(-c2ccc(C)nc2)c1=O [Example 215, methyl 4-amino-1-(6-methylpyridin-3-yl)-2-oxo-7-(trifluoromethyl)-1,2-dihydroquinoline-3-carboxylate] | 2.5 nM | – |
| COC(=O)c1c(N)c2ccc(Br)nc2n(-c2ccc(Cl)nc2C)c1=O [Example 248, methyl 4-amino-7-bromo-1-(6-chloro-2-methylpyridin-3-yl)-2-oxo-1,2-dihydro-1,8-naphthyridine-3-carboxylate] | 1.69 nM | – |
| COC(=O)c1c(N)c2ccc(C(F)(F)F)cc2n(-c2ccc3c(c2)C(O)CC3)c1=O (stereo not drawn) [Example 137, methyl 4-amino-1-(3-hydroxy-2,3-dihydro-1H-inden-5-yl)-2-oxo-7-(trifluoromethyl)-1,2-dihydroquinoline-3-carboxylate] | 3.34 nM | – |
| COC(=O)c1c(N)c2ccc(OC(F)F)cc2n(-c2ccc(C(C)O)cc2)c1=O (stereo not drawn) [Example 335, methyl 4-amino-7-(difluoromethoxy)-1-(4-(1-hydroxyethyl)phenyl)-2-oxo-1,2-dihydroquinoline-3-carboxylate] | 2.06 nM | – |
| COC(=O)c1c(N)c2ccc(C(F)F)cc2n(-c2ccc(C(C)O)cc2)c1=O (stereo not drawn) [Example 336, methyl 4-amino-7-(difluoromethyl)-1-(4-(1-hydroxyethyl)phenyl)-2-oxo-1,2-dihydroquinoline-3-carboxylate] | 1.94 nM | – |
| COC(=O)c1c(N)c2ccc(C(F)(F)F)nc2n(-c2ccc3nccn3c2)c1=O [Example 309, methyl 4-amino-1-(imidazo[3,2-a]pyridin-6-yl)-2-oxo-7-(trifluoromethyl)-1,2-dihydro-1,8-naphthyridine-3-carboxylate] | 2.02 nM | – |
| COC(=O)c1c(N)c2ccc(Cl)cc2n(-c2ccc(N)cc2)c1=O [Example 322, methyl 4-amino-7-chloro-1-(4-aminophenyl)-2-oxo-1,2-dihydroquinoline-3-carboxylate] | 1.84 nM | – |
| COC(=O)c1c(N)c2ccc(I)cc2n(-c2ccc(Cl)c3cnccc23)c1=O [Example 227, methyl 4-amino-1-(8-chloroisoquinolin-5-yl)-7-iodo-2-oxo-1,2-dihydroquinoline-3-carboxylate] | 1.96 nM | – |
| COC(=O)c1c(N)c2ccc(C(F)(F)F)cc2n(-c2ccc3sccc3c2)c1=O [Example 153, methyl 4-amino-1-(benzo[b]thiophen-5-yl)-2-oxo-7-(trifluoromethyl)-1,2-dihydroquinoline-3-carboxylate] | 2.62 nM | – |
| COC(=O)c1c(N)c2ccc(Br)cc2n(-c2cccc3c(C)nccc23)c1=O [Example 231, methyl 4-amino-1-(1-methylisoquinolin-5-yl)-7-bromo-2-oxo-1,2-dihydroquinoline-3-carboxylate] | 2.36 nM | – |
| COC(=O)c1c(N)c2ccc(Br)nc2n(-c2ccc(N)cc2C)c1=O [Example 304, methyl 4-amino-1-(4-amino-2-methylphenyl)-7-bromo-2-oxo-1,2-dihydro-1,8-naphthyridine-3-carboxylate] | 2.28 nM | – |
| COC(=O)c1c(N)c2ccc(C3CC3)cc2n(-c2ccc(Cl)cc2)c1=O [Example 134, methyl 4-amino-1-(4-chlorophenyl)-7-cyclopropyl-2-oxo-1,2-dihydro quinoline-3-carboxylate] | 2.01 nM | – |
| COC(=O)c1c(N)c2ccc(C(F)(F)F)cc2n(-c2ccc3nc[nH]c3c2)c1=O [Example 76, methyl 4-amino-1-(3H-benzo[d]imidazol-5-yl)-2-oxo-7-(trifluoromethyl)-1,2-dihydroquinoline-3-carboxylate] | 1.71 nM | – |

Further compounds by falling IC50 (human MAT2A enzyme), results first:

| IC50 (human MAT2A enzyme) | Compound | other results |
| --- | --- | --- |
| 1.68 nM | COC(=O)c1c(N)c2ccc(C(F)(F)F)cc2n(-c2ccc(Br)cc2)c1=O [Example 81, methyl 4-amino-1-(4-bromophenyl)-2-oxo-7-(trifluoromethyl)-1,2-dihydro quinoline-3-carboxylate] | – |
| 1.45 nM | COC(=O)c1c(N)c2ccc(Br)c(F)c2n(-c2ccc(N)cc2)c1=O [Example 338, methyl 4-amino-1-(4-aminophenyl)-7-bromo-8-fluoro-2-oxo-1,2-dihydroquinoline-3-carboxylate] | – |
| 1.41 nM | COC(=O)c1c(N)c2ccc(Br)nc2n(-c2ccc(N)cc2)c1=O [Example 263, methyl 4-amino-1-(4-aminophenyl)-7-bromo-2-oxo-1,2-dihydro-1,8-naphthyridine-3-carboxylate] | – |
| 1.26 nM | COC(=O)c1c(N)c2ccc(I)cc2n(-c2ccc3ccncc3c2)c1=O [Example 242, methyl 4-amino-7-iodo-1-(isoquinolin-7-yl)-2-oxo-1,2-dihydroquinoline-3-carboxylate] | – |
| 1.23 nM | COC(=O)c1c(N)c2ccc(I)cc2n(-c2ccccc2)c1=O [Example 16, methyl 4-amino-7-iodo-2-oxo-1-phenyl-1,2-dihydroquinoline-3—carboxylate] | – |
| 1.21 nM | COC(=O)c1c(N)c2ccc(Br)cc2n(-c2ccc(OC(F)F)cc2)c1=O [Example 83, methyl 4-amino-7-bromo-1-(4-((difluoromethyl)oxy)phenyl)-2-oxo-1,2-dihydroquinoline-3-carboxylate] | – |
| 1.16 nM | COC(=O)c1c(N)c2ccc(C(F)(F)F)cc2n(-c2ccc(N)nc2)c1=O [Example 182, methyl 4-amino-1-(6-aminopyridin-3-yl)-2-oxo-7-(trifluoromethyl)-1,2-dihydroquinoline-3-carboxylate] | – |
| 1.15 nM | [2H]C([2H])([2H])OC(=O)c1c(N)c2ccc(OC(F)F)cc2n(-c2ccc(N)cc2C)c1=O [Example 429, methyl-d3 4-amino-1-(2-methyl-4-aminophenyl)-7-(difluoromethoxy)-2-oxo-1,2-dihydroquinolin-3-carboxylate] | – |
| 1.05 nM | COC(=O)c1c(N)c2ccc(C3CC3)nc2n(-c2ccc(N)cc2)c1=O [Example 373, methyl 4-amino-1-(4-aminophenyl)-7-cyclopropyl-2-oxo-1,2-dihydro-1,8-naphthyridine-3-carboxylate] | – |
| 0.93 nM | COC(=O)c1c(N)c2ccc(Br)cc2n(-c2ccc(Cl)cc2)c1=O [Example 91, methyl 4-amino-7-bromo-1-(4-chlorophenyl)-2-oxo-1,2-dihydroquinoline-3-carboxylate] | – |
| 0.81 nM | COC(=O)c1c(N)c2ccc(C(F)(F)F)cc2n(-c2ccc3occc3c2)c1=O [Example 196, methyl 4-amino-1-(6-benzofuran-5-yl)-2-oxo-7-(trifluoromethyl)-1,2-dihydro quinoline-3-carboxylate] | – |
| 0.76 nM | COC(=O)c1c(N)c2ccc(C(F)(F)F)cc2n(-c2ccc3ccoc3c2)c1=O [Example 187, methyl 4-amino-1-(1-benzofuran-6-yl)-2-oxo-7-(trifluoromethyl)-1,2-dihydroquinoline-3-carboxylate] | – |
| 0.53 nM | COC(=O)c1c(N)c2ccc(C(F)(F)F)nc2n(-c2ccc(N)cc2)c1=O [Example 274, methyl 4-amino-1-(4-aminophenyl)-2-oxo-7-(trifluoromethyl)-1,2-dihydro-1,8-naphthyridine-3-carboxylate] | – |
| 0.43 nM | COC(=O)c1c(N)c2ccc(C(F)(F)F)cc2n(-c2ccc(OC)cc2)c1=O [Example 25, methyl 4-amino-1-(4-methoxyphenyl)-2-oxo-7-(trifluoromethyl)-1,2-dihydro quinoline-3-carboxylate] | – |

Reference: patent US20250221979A1, “NOVEL HETEROCYCLIC COMPOUND” (SHOUYAO HOLDINGS (BEIJING) CO., LTD., priority 2022, published 2025)
